In patent US5744452A, “γ-L-glutamyl containing immunomodulator compounds and methods therewith” (Wei; Edward T., priority 1995, dated 1998):

Legend:
[1] = test system: murine spleen cells; assay: IL-2 production by Concanavalin A activated murine spleen cells (CTLL-2 cell assay); type: cell-based, CBA mice; conditions: for IL-2 production by murine spleen cells: Table 2; for interleukin-2 production by murine spleen cells: Table 6
Method: Spleen cells from CBA mice were cultured in tissue culture plates at a 10^6 cells/ml in RPMI-1640 medium supplemented with 10% fetal calf serum, 2 mM L-glutamine, and 80 μg/ml of Gentamycin. 1 μg/ml of Concanavalin A was used to activate basal IL-2 production from murine spleen lymphocytes. Bestim was added to cell cultures at the "0" time. After 36 hours supernatants were collected, centrifuged at 800 xg and IL-2 levels were measured in a CTLL-2 cell assay (Gillis et al., "T-cell Growth Factor: Parameters of Production and Quantitative Assay for Activity," J. Immunol., 120: 2027-2032, 1978). […] However, due to the variations in the method for IL-2 measurements clear dose-response comparisons could not be achieved.
IL-2 production studies have been performed using murine spleen lymphocytes activated with Concanavalin A. Spleen cells from CBA mice were cultured in a tissue culture plates at a 1×10^6 /ml concentration in RPMI-1640 medium supplemented with 10% fetal calf serum, 2 mM L-glutamine,80 μg/ml Gentamycin and 1 μg/ml Concanavalin A as an inducer of basal level IL-2 synthesis. Bestim at various concentration was added to cell cultures at the "0" time. After 36 hours supernatants were collected, centrifuged at 800 xg and used for IL-2 levels determination in a CTLL-2 cell assay (Gillis et al., 1978). IL-2-dependent CTLL-2 cells were grown in RPMI-1640 medium in the presence of 1-2 U/ml recombinant IL-2 as a growth factor. Before assay, cells were washed twice to remove IL-2 from the medium. After this wash tested supernatants were added and cells were incubated for 36 hours. IL-2-induced proliferation was assayed using a ^3 H-thymidine incorporation method.

[2] = test system: mice; assay: Pharmacological activity after oral administration to mice; type: in vivo; conditions: for .THETA.-antigen expression % of cells: bone marrow after 30 days; for IL-2 production: splenocytes after 30 days
Method: Bestim dissolved in saline was given orally, for 5 days, to groups of 5 mice per dose. After 30 days, the quantity of .THETA.-antigen positive cells in bone marrow and IL-2 production by splenocytes were measured (as described in later in methods).

[3] = test system: patients with disseminated cancer; assay: Study in patients with disseminated cancer after anticancer therapy; type: in vivo, human; conditions: for Adhesion (%) / B-cells / B-cells (%) / Blastransformation, LPS / Blastransformation, PHA / Blastransformation, spontaneous / CD3 / CD3 (%) / CD4 / CD4 (%) / CD4/CD8 / CD8 / CD8 (%) / Cationic proteins / Chemiluminescence, luminol (induced) / Chemiluminescence, luminol (spontaneous) / IgA / IgG / IgM / Myeloperoxidase activity / NBT reduction test / NK activity (%) / NK-cells / NK-cells (%) / Stimulation index, LPS / Stimulation index, PHA: cancer patients
Method: Preliminary studies were conducted to characterize the immunomodulatory properties of Bestim in human subjects. The protocol for the human subjects studies were reviewed and approved by a Hospital Committee (Moscow Hospital N-24) and informed consent was obtained from all subjects. All 62 patients received by intramuscular injection 0.1 mg of Bestim dissolved in 1.5 to 2.0 ml of sterile saline, one injection per day for 5 days. Patients participating in the clinical trials were from 2 groups:
The first group consisted of 34 patients with disseminated cancer (29 with colon cancer, 2 with primary brain gliomas, 2 with stage III gastric cancer, 1 with stage IIIb breast cancer). These patients received Bestim therapy after standard anticancer therapy which included surgical treatment and chemotherapy with 5-fluorouracil. It should be noted here that the goal of Bestim therapy in these patients was not to treat the tumor but to correct the immunodeficiency that accompanied this disease and which occurs as a consequence of anticancer therapy. Placebo (saline injections) were administered to 14 subjects.
Laboratory measurements (data in Table 8 to 10) were performed one day before and compared to values obtained three days after injection of Bestim.

[4] = test system: patient after surgical removal of thymus gland; assay: Case History 3: immunodeficiency caused by surgical removal of the thymus (Patient C); type: in vivo, human
Method: Patient C was in the clinic for immunodeficiency caused by surgical removal of the thymus gland. Bestim was administered in the standard 5 daily intramuscular dose of 0.1 mg.

Compound: N[C@@H](CCC(=O)N[C@@H](Cc1c[nH]c2ccccc12)C(=O)O)C(=O)O [Bestim, γ-L-glutamyl-L-tryptophan]
- IL-2 production by murine spleen cells ([1]; peptide 0.001 μg/ml, 36 hours): 159 ± 13
- IL-2 production by murine spleen cells ([1]; peptide 0.01 μg/ml): 134 ± 8
- IL-2 production by murine spleen cells ([1]; peptide 0.1 μg/ml): 98 ± 5
- IL-2 production by murine spleen cells ([1]; peptide 1.0 μg/ml): 157 ± 10
- IL-2 production by murine spleen cells ([1]; peptide 10 μg/ml): 95 ± 4
- IL-2 production by murine spleen cells ([1]; peptide 100 μg/ml): 112 ± 3
- interleukin-2 production by murine spleen cells ([1]; peptide 0.001 μg/ml): 149 ± 2
- interleukin-2 production by murine spleen cells ([1]; peptide 0.01 μg/ml): 162 ± 4
- interleukin-2 production by murine spleen cells ([1]; peptide 0.1 μg/ml): 172 ± 9
- interleukin-2 production by murine spleen cells ([1]; peptide 1.0 μg/ml): 271 ± 11
- interleukin-2 production by murine spleen cells ([1]; peptide 10 μg/ml): 160 ± 8
- interleukin-2 production by murine spleen cells ([1]; peptide 100 μg/ml): 186 ± 6
- effect on IL-2 secretion from cells ([1]; conclusion from Table 2): enhances IL-2 secretion from cells at low doses
- activity after oral administration ([2]; animal studies, summary): active after oral administration
- .THETA.-antigen expression % of cells ([2]; oral 0.1 μg/kg/day for 5 days): 48 ± 1.9 % of cells
- IL-2 production ([2]; oral 0.1 μg/kg/day for 5 days): 43 ± 11.5 Units/ml
- .THETA.-antigen expression % of cells ([2]; oral 1 μg/kg/day for 5 days): 48 ± 3.0 % of cells
- IL-2 production ([2]; oral 1 μg/kg/day for 5 days): 73 ± 16.3 Units/ml
- .THETA.-antigen expression % of cells ([2]; oral 10 μg/kg/day for 5 days): 36 ± 2.3 % of cells
- IL-2 production ([2]; oral 10 μg/kg/day for 5 days): 130 ± 11.8 Units/ml
- patients who subjectively felt better and were improved in the physician's opinion ([3]; 30 out of 34 cancer patients, 0.1 mg i.m. per day for 5 days): 88%
- patients with negative changes in immunological parameters ([3]; cancer patients N = 34): 9%
- patients with no significant change in immunological parameters ([3]; cancer patients N = 34): 18%
- patients with positive changes in immunological parameters ([3]; cancer patients N = 34): 73%
- Adhesion (%) ([3]; Bestim After): 47.6 ± 5.7%
- B-cells ([3]; Bestim After): 240 ± 90 10^6 cells/L
- B-cells (%) ([3]; Bestim After): 7.1 ± 2.2%
- Blastransformation, LPS ([3]; Bestim After): 2738 ± 305
- Blastransformation, PHA ([3]; Bestim After): 21661 ± 5674
- Blastransformation, spontaneous ([3]; Bestim After): 434 ± 73
- CD3 ([3]; Bestim After): 1940 ± 234 10^6 cells/L
- CD3 (%) ([3]; Bestim After): 70 ± 4%
- CD4 ([3]; Bestim After): 923 ± 114 10^6 cells/L
- CD4 (%) ([3]; Bestim After): 35 ± 2%
- CD4/CD8 ([3]; Bestim After): 1.16 ± 0.09
- CD8 ([3]; Bestim After): 757 ± 75 10^6 cells/L
- CD8 (%) ([3]; Bestim After): 29 ± 2%
- Cationic proteins ([3]; Bestim After): 52.4 ± 3.3 Units
- Chemiluminescence, luminol (induced) ([3]; Bestim After): 5294 ± 789
- Chemiluminescence, luminol (spontaneous) ([3]; Bestim After): 827 ± 299
- IgA ([3]; Bestim After): 4.1 ± 0.7 g/L
- IgG ([3]; Bestim After): 14.4 ± 1.0 g/L
- IgM ([3]; Bestim After): 2.2 ± 0.4 g/L
- Myeloperoxidase activity ([3]; Bestim After): 479 ± 97 Units
- NBT reduction test ([3]; Bestim After): 160 ± 21 Units
- NK activity (%) ([3]; Bestim After): 28 ± 1.5%
- NK-cells ([3]; Bestim After): 267 ± 32 10^6 cells/L
- NK-cells (%) ([3]; Bestim After): 12.0 ± 1.7%
- Stimulation index, LPS ([3]; Bestim After): 7.4 ± 0.7
- Stimulation index, PHA ([3]; Bestim After): 48.9 ± 10.3
- Adhesion (%) ([3]; Bestim Before): 49.6 ± 5.9%
- B-cells ([3]; Bestim Before): 152 ± 58 10^6 cells/L
- B-cells (%) ([3]; Bestim Before): 5.0 ± 1.3%
- Blastransformation, LPS ([3]; Bestim Before): 2328 ± 438
- Blastransformation, PHA ([3]; Bestim Before): 5998 ± 1745
- Blastransformation, spontaneous ([3]; Bestim Before): 373 ± 63
- CD3 ([3]; Bestim Before): 1430 ± 183 10^6 cells/L
- CD3 (%) ([3]; Bestim Before): 65 ± 4%
- CD4 ([3]; Bestim Before): 582 ± 54 10^6 cells/L
- CD4 (%) ([3]; Bestim Before): 28 ± 2%
- CD4/CD8 ([3]; Bestim Before): 1.04 ± 0.08
- CD8 ([3]; Bestim Before): 572 ± 53 10^6 cells/L
- CD8 (%) ([3]; Bestim Before): 25 ± 2%
- Cationic proteins ([3]; Bestim Before): 49.9 ± 5.9 Units
- Chemiluminescence, luminol (induced) ([3]; Bestim Before): 6991 ± 2101
- Chemiluminescence, luminol (spontaneous) ([3]; Bestim Before): 475 ± 141
- IgA ([3]; Bestim Before): 4.5 ± 0.8 g/L
- IgG ([3]; Bestim Before): 14.2 ± 1.0 g/L
- IgM ([3]; Bestim Before): 1.9 ± 0.4 g/L
- Myeloperoxidase activity ([3]; Bestim Before): 467 ± 87 Units
- NBT reduction test ([3]; Bestim Before): 157 ± 19 Units
- NK activity (%) ([3]; Bestim Before): 29 ± 1.3%
- NK-cells ([3]; Bestim Before): 256 ± 44 10^6 cells/L
- NK-cells (%) ([3]; Bestim Before): 13.4 ± 2.3%
- Stimulation index, LPS ([3]; Bestim Before): 7.6 ± 0.6
- Stimulation index, PHA ([3]; Bestim Before): 15.9 ± 4.5
- T-Lymphocytes (CD3) ([4]; After Bestim Therapy): 49%
- Lymphocytes ([4]; After Bestim Therapy (5 daily i.m. 0.1 mg)): 1980 per mm^3
- Lymphocytes ([4]; Before Therapy): 1100 per mm^3
- T-Lymphocytes (CD3) ([4]; Before Therapy): 10%
